From USRE47689E1, “Compounds for treating spinal muscular atrophy” (PTC Therapeutics, Inc., priority 2011, dated 2019)
Read-outs that look alike come from different tables or passages of the source.

Assays:
Smn protein = Smn protein assay in cultured cells (SMN HTRF); format: cell-based, human; details: 48 hours; for maximum fold (Fold) increase of Smn protein: SMA patient fibroblast cells, 7-point concentration data, fold increase relative to vehicle control (SMN HTRF); for EC1.5x (concentration giving 1.5-fold Smn protein increase): SMA Type 1 patient fibroblast cells (GM03813), 7-point concentration curve, SMN HTRF, concentration producing 1.5 times Smn protein vs DMSO vehicle control, read-out: EC1.5x for Smn protein expression
Summary of the method: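 Lysates in RIPA with protease inhibitors are incubated overnight at room temperature with HTRF anti-SMN antibodies. EC1.5x is derived from fold increase in ΔF over vehicle.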

[1] = test system: SMN2 minigene (full length SMN2 minigene mRNA containing SMN2 exon 7); assay: SMN2 minigene mRNA splicing RT-qPCR assay in cultured cells; format: cell-based, human; details: Homo sapiens, HEK293-H, read-out: EC1.5x for production of full length SMN2 mRNA
Summary of the method: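 Read-out: full-length (exon 7-included) SMN2 minigene mRNA by multiplex RT-qPCR with GAPDH, efficiency-corrected (1+E)^−Ct, GAPDH-normalized and divided by vehicle. Stably transfected HEK293H cells, 24 h compound exposure, duplicates per concentration. Value is EC1.5x, reported as star ranges.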

[2] = HEK293H cells stably transfected with SMN2-A minigene, 24 hours, 7-point concentration curve, 1.5-fold relative to vehicle-treated cells

Row | Compound | melting point [°C] | maximum fold (Fold) increase of Smn protein (Smn protein) | EC (1.5-fold) [1, 2] [µM] | EC (1.5-fold) ([1]; 24 h) [µM] | EC1.5x (concentration giving 1.5-fold Smn protein increase) (Smn protein) [nM]
1 | O=c1oc2cc(N3CCNCC3)ccc2cc1-c1cnccc1Cl [Compound 235, 3-(4-chloropyridin-3-yl)-7-(piperazin-1-yl)-2H-chromen-2-one] | 175 to 177 | * (maximum fold increase of ≤1.2) | – | 1 to 3 | –
2 | Cc1cn2cc(-c3cc4ccc(OCCN5CC[C@@H](O)C5)cc4oc3=O)nc2c(C)n1 [Compound 941, 3-(6,8-dimethylimidazo[1,2-a]pyrazin-2-yl)-7-{2-[(3R)-3-hydroxypyrrolidin-1-yl]ethoxy}-2H-chromen-2-one] | 195 to 202 | **** (fold increase between >1.5 and ≤1.65) | < 0.1 | – | 1000 to 3000
3 | CN1CCN(c2ccc3cc(-c4cn5ncccc5n4)c(=O)oc3c2)CC1 [Cpd 128, 3-(imidazo[1,2-b]pyridazin-2-yl)-7-(4-methylpiperazin-1-yl)-2H-chromen-2-one] | 284 to 285 | *** (fold increase between >1.35 and ≤1.5) | 1 to 3 | – | 3000 to 10000
4 | O=c1oc2cc(N3CCCNCC3)ccc2cc1-c1nc(C(F)(F)F)cs1 [Compound 237, 7-(1,4-diazepan-1-yl)-3-[4-(trifluoromethyl)-1,3-thiazol-2-yl]-2H-chromen-2-one] | 200 | * (maximum fold increase of ≤1.2) | 1 to 3 | – | –
5 | CN1CCN(c2ccc3cc(-c4cn5cc(F)ccc5n4)c(=O)oc3c2)CC1 [Compound 138, 3-(6-fluoroimidazo[1,2-a]pyridin-2-yl)-7-(4-methylpiperazin-1-yl)-2H-chromen-2-one] | 266 to 269 | ** (fold increase between >1.2 and ≤1.35) | 1 to 3 | – | –
6 | Cc1cn2cc(-c3cc4ccc(NC5CNC5)cc4oc3=O)nc2c(C)n1 [Compound 619, 7-(azetidin-3-ylamino)-3-(6,8-dimethylimidazo[1,2-a]pyrazin-2-yl)-2H-chromen-2-one] | 250 to 256 | **** (fold increase between >1.5 and ≤1.65) | < 0.1 | – | < 300
7 | Cc1cn2cc(-c3cc4ccc(C5CCN(C)CC5)cc4oc3=O)ccc2n1 [Compound 826, 3-(2-methylimidazo[1,2-a]pyridin-6-yl)-7-(1-methylpiperidin-4-yl)-2H-chromen-2-one] | 204 to 206 | ***** (fold increase >1.65) | < 0.1 | – | < 300
8 | CCN1CCC(c2ccc3cc(-c4cn5cc(C)ncc5n4)c(=O)oc3c2)CC1 [Compound 844, 7-(1-ethylpiperidin-4-yl)-3-(6-methylimidazo[1,2-a]pyrazin-2-yl)-2H-chromen-2-one] | 249 to 259 | **** (fold increase between >1.5 and ≤1.65) | < 0.1 | – | 300 to 1000
9 | CCNCCOc1ccc2cc(-c3cn4cc(C)nc(C)c4n3)c(=O)oc2c1 [Compound 930, 3-(6,8-dimethylimidazo[1,2-a]pyrazin-2-yl)-7-[2-(ethylamino)ethoxy]-2H-chromen-2-one] | 189 to 193 | ***** (fold increase >1.65) | < 0.1 | – | < 300
10 | CN1CCCN(c2ccc3cc(-c4cn5ccc(C(F)(F)F)cc5n4)c(=O)oc3c2)CC1 [Compound 276, 7-(4-methyl-1,4-diazepan-1-yl)-3-[7-(trifluoromethyl)imidazo[1,2-a]pyridin-2-yl]-2H-chromen-2-one] | 244 to 249 | * (maximum fold increase of ≤1.2) | 0.3 to 1 | – | –
11 | Cc1cn2cc(-c3cc4ccc(N(C)[C@H]5CCN(C)C5)cc4oc3=O)nc2c(C)n1 [Compound 656, 3-(6,8-dimethylimidazo[1,2-a]pyrazin-2-yl)-7-{methyl[(3S)-1-methylpyrrolidin-3-yl]amino}-2H-chromen-2-one] | 178 to 184 | ***** (fold increase >1.65) | < 0.1 | – | < 300

Further lines, with some results ahead:

Row | melting point [°C] | Compound | maximum fold (Fold) increase of Smn protein (Smn protein) | EC (1.5-fold) [1, 2] [µM] | EC (1.5-fold) ([1]; 24 h) [µM] | EC1.5x (concentration giving 1.5-fold Smn protein increase) (Smn protein) [nM]
12 | 230 to 236 | C[C@H]1CN(c2ccc3cc(-c4cn5cc(F)cnc5n4)c(=O)oc3c2)CCN1 [Compound 492, 3-(6-fluoroimidazo[1,2-a]pyrimidin-2-yl)-7-[(3S)-3-methylpiperazin-1-yl]-2H-chromen-2-one] | * (maximum fold increase of ≤1.2) | 1 to 3 | – | –
13 | 208 to 212 | Cc1ccc2nc(-c3cc4ccc(N5CCN[C@@H](C)C5)cc4oc3=O)cn2n1 [Compound 624, 3-(6-methylimidazo[1,2-b]pyridazin-2-yl)-7-[(3S)-3-methylpiperazin-1-yl]-2H-chromen-2-one] | *** (fold increase between >1.35 and ≤1.5) | < 0.1 | – | –
14 | 161 to 163 | CN1CCCN(c2ccc3cc(-c4cn5cccc(Cl)c5n4)c(=O)oc3c2)CC1 [Compound 280, 3-(8-chloroimidazo[1,2-a]pyridin-2-yl)-7-(4-methyl-1,4-diazepan-1-yl)-2H-chromen-2-one] | *** (fold increase between >1.35 and ≤1.5) | 0.1 to 0.3 | – | –
15 | 295 to 300 | O=c1oc2cc(N3CCNCC3)ccc2cc1-c1nc2cc(F)ccc2[nH]1 [Compound 395, 3-(5-fluoro-1H-benzimidazol-2-yl)-7-(piperazin-1-yl)-2H-chromen-2-one] | * (maximum fold increase of ≤1.2) | 0.3 to 1 | – | –
16 | 291 to 293 | CCCN1CCN(c2ccc3cc(-c4cn5cccnc5n4)c(=O)oc3c2)CC1 [Compound 109, 3-(imidazo[1,2-a]pyrimidin-2-yl)-7-(4-propylpiperazin-1-yl)-2H-chromen-2-one] | *** (fold increase between >1.35 and ≤1.5) | 1 to 3 | – | 3000 to 10000
17 | 304 to 306 | CC(=O)O.Cc1cn2cc(-c3cc4ccc(N5CCN(C)[C@H](C)C5)cc4oc3=O)nc2c(O)n1 [Compound 760, 7-[(3R)-3,4-dimethylpiperazin-1-yl]-3-(8-hydroxy-6-methylimidazo[1,2-a]pyrazin-2-yl)-2H-chromen-2-one acetate] | *** (fold increase between >1.35 and ≤1.5) | 0.1 to 0.3 | – | –
18 | 232 to 238 | Cc1cc(C)c2nc(-c3cc4ccc(N5CCN(C)CC5)cc4oc3=O)cn2c1 [Compound 261, 3-(6,8-dimethylimidazo[1,2-a]pyridin-2-yl)-7-(4-methylpiperazin-1-yl)-2H-chromen-2-one] | ** (fold increase between >1.2 and ≤1.35) | 0.3 to 1 | – | –
19 | 179 to 181 | CN(C)c1ccc(-c2cc3ccc(N4CCNCC4)cc3oc2=O)cn1 [Compound 547, 3-[6-(dimethylamino)pyridin-3-yl]-7-(piperazin-1-yl)-2H-chromen-2-one] | * (maximum fold increase of ≤1.2) | 3 to 30 | – | –
20 | 252 to 260 | C[C@H]1CN(c2ccc3cc(-c4cn5ccc(C(F)(F)F)cc5n4)c(=O)oc3c2)CCN1 [Compound 268, 7-[(3S)-3-methylpiperazin-1-yl]-3-[7-(trifluoromethyl)imidazo[1,2-a]pyridin-2-yl]-2H-chromen-2-one] | * (maximum fold increase of ≤1.2) | 0.3 to 1 | – | –
21 | 199 to 202 | C[C@@H]1CN(c2ccc3cc(-c4cn5cccc(Cl)c5n4)c(=O)oc3c2)CCN1C [Compound 296, 3-(8-chloroimidazo[1,2-a]pyridin-2-yl)-7-[(3R)-3,4-dimethylpiperazin-1-yl]-2H-chromen-2-one] | *** (fold increase between >1.35 and ≤1.5) | 0.1 to 0.3 | – | –
22 | 170 to 173 | CN1CCCN(c2ccc3cc(-c4nc5ccccc5o4)c(=O)oc3c2)CC1 [Compound 47, 3-(1,3-benzoxazol-2-yl)-7-(4-methyl-1,4-diazepan-1-yl)-2H-chromen-2-one] | ** (fold increase between >1.2 and ≤1.35) | 3 to 30 | – | –
23 | 258 to 265 | Cc1ccn2cc(-c3cc4ccc(N5CCN6CCC[C@H]6C5)cc4oc3=O)nc2c1 [Compound 534, 7-[(8aS)-hexahydropyrrolo[1,2-a]pyrazin-2(1H)-yl]-3-(7-methylimidazo[1,2-a]pyridin-2-yl)-2H-chromen-2-one] | *** (fold increase between >1.35 and ≤1.5) | 1 to 3 | – | –
24 | 255 to 261 | Cc1cn2cc(-c3cc4ccc(NC5CCNCC5)cc4oc3=O)nc2c(C)n1 [Compound 562, 3-(6,8-dimethylimidazo[1,2-a]pyrazin-2-yl)-7-(piperidin-4-ylamino)-2H-chromen-2-one] | **** (fold increase between >1.5 and ≤1.65) | < 0.1 | – | < 300
